This is an account of results in patent US12263156B2, “Use of small molecule inhibitors of the BfrB:Bfd interaction in biofilms” (priority 2020, dated 2025).

Assay [1] concerns P. aeruginosa PAO1. Nature of the assay: Half maximal inhibitory concentration (IC50) of planktonic growth, CFU/mL enumeration. The format is cell-based, Pseudomonas aeruginosa. To be noted: for IC50: Pseudomonas aeruginosa, PAO1, planktonic growth, 24 h, 35° C, defined media, 2% DMSO, average ± SD of three experiments. The protocol: Chemicals were purchased from Fisher Scientific (Waltham, MA) unless otherwise stated. P. aeruginosa PAO1 was obtained from the University of Washington Genome center.^80 The PAO1 strain expressing enhanced yellow fluorescent protein (EYFP) was prepared as described in Soldano, A.; Yao, H.; Chandler, J. R.; Rivera, M. (2020) Inhibiting Iron Mobilization from Bacterioferritin in Pseudomonas aeruginosa Impairs Biofilm Formation Irrespective of Environmental Iron Availability. ACS Infect. Dis. 6, 447-458. 10.1021/acsinfecdis.9b00398.^26 Clinical isolates of P. aeruginosa were purchased from JMI Laboratories (North Liberty, IA, USA). […] Starter cultures of P. aeruginosa PAO1 in 5 mL LB media were grown for 13 hours in 50 mL conical tubes at 37° C. and 220 rpm. For biofilm experiments, a EYFP-expressing P. aeruginosa strain was routinely grown in Pseudomonas Isolation (PI) media (20 g L^−1 peptone, 0.3 g L^−1 MgCl2·6H O, 10 g L^−1 K2SO4, 25 mg L^−1 irgasan, and 20 mL L^−1 glycerol, pH 7.0). Starter cultures were grown from a single colony at 37° C. and shaking at 220 rpm for 14 hours in 5 mL PI media supplemented with 10 μM Fe. Pellicle biofilms were cultured for 48 hours at 30° C. in PI media supplemented with 20 μM Fe. Surface-attached biofilms were cultured in AB minimal media^81 supplemented with trace metals [0.15 μM (NH4)2MoO4, 3 μM CuSO4, 2 μM Co(NO3)2, 9.4 μM Na2B4O7, and 7.6 μM ZnSO4], 3 mM glucose and 15 μM Fe. Iron supplementation was carried out by addition of a small volume of filter-sterilized 10 mM (NH4)2Fe(SO4)2 (pH˜2.0) solution. […]; IC50 values (Table 1 below) were determined as reported previously^25 with small modifications. In brief: precultures of P. aeruginosa PAO1 (5 mL) were grown in LB media for 13 hours at 37° C. and 220 rpm in 50 mL conical tubes (VWR International, PA). The cells were centrifuged for 5 min at 4,000 rpm and 4° C., washed two times and then diluted in buffer (100 mM KH2PO4 and 15 mM (NH4)2SO4 to an optical density at 600 nm (OD600) of 0.1. A small volume of compound stock solution (10 mM) was transferred to a microcentrifuge tube, initially diluted with DMSO to 20 μL, and then diluted to 1 mL with preculture cell suspension in defined media with OD600=0.0001, so the final DMSO concentration is 2%. The resultant cell suspension (200 μL) was transferred to a clear-bottom polystyrene 96-well plate (VWR International, PA) covered with a lid and incubated at 35° C. and 205 cpm for 24 h in a Synergy H1 microplate reader (Biotek Instruments Inc., Winooski, VT). The cell cultures were serially diluted and then plated on PI Agar (PIA; BD Biosciences, San Jose, CA) plates for enumeration of viable cells (CFU/mL). The % growth was calculated from the ratio CFU/mL(treated)/CFU/mL(untreated control). To calculate the IC50 values, the % growth was plotted as a function of compound concentration, expressed as log[compound] (μM), and fitted to the 4-parameter logistic model describing the sigmoid-shaped response pattern (equation 1),^83 where b is the slope factor, max is the upper asymptote (plateau), and min is the lower asymptote. Values are the average and standard deviation from three independent experiments.

The subject of assay [2] is EYFP-expressing P. aeruginosa PAO1 biofilms. As to the kind of experiment: Flow cell biofilm assay (CLSM imaging, COMSTAT biomass). The format is cell-based, Pseudomonas aeruginosa. To be noted: 3-day old biofilms, 24 h; KM-5-25 40 and 80 μM, KM-5-66 15, 30 and 50 μM. Here is the method:
ACS Infect. Dis. […] The experimental shear stress was 0.14-dyn/cm^2 (shear rate=14 s^−1, pressure=7.1 mbar, flow rate=0.4 mL/min) and the switch time was set to 540 s. […] During biofilm growth and challenge with antibacterial, the culture medium in the reservoirs was removed every 12 hours and replaced with fresh pre-warmed medium. […] The biofilms were imaged with the aid of a Leica TCS SP8 confocal microscope (Leica Microsystems, Germany) using a HC PL apo CS2 63×/1.4 oil objective. […] Image stacks were acquired with a z-step size of 0.3 μm at randomly chosen positions. The Leica Application Suite X (LAS-X) software was used for image stack processing.^54 Quantitative analysis of biofilm biomass was performed using the COMSTAT computer program^54 and the Otsu method of automatic thresholding.^85
The treated biofilms were counterstained with the cell impermeable fluorescent nucleic acid dye Sytox Red and then imaged with the aid of confocal laser scanning microscopy (CLSM).

As a reminder, the IC50 is the concentration that inhibits the measured activity by half. With `O=C1NC(=O)c2c(NCc3cc(Cl)ccc3O)cccc21` [KM-5-25], in assay [1], the IC50 stood at 69 ± 7 µM. Also, the “fold lower IC50 relative to JAG-5-7” value in assay [1] (relative to JAG-5-7) was about 2 fold. Further, the “killing of flow cell biofilm cells (CLSM images)” value in assay [2] is given as “concentration dependent manner”.
Regarding `O=C1NC(=O)c2c(NCCCc3cc(O)cc(Cl)c3)cccc21` [KM-5-66], the IC50 in assay [1] came out at 42 ± 6 µM. The “fold decrease of IC50 relative to compound 16” value in assay [1] (relative to compound 16) is on record as about 3 fold. Further, the “killing of flow cell biofilm cells (CLSM images)” value in assay [2] is listed as “concentration dependent manner”.
